Assay results from the NIST ThermoML archive (doi:10.1021/je5009894).

Assay: mn = molality of the nth substance listed, in mol/kg
Settings: 298.15 K, 101 kPa, Liquid, Pycnometric method

O=[N+]([O-])[O-].O=[N+]([O-])[O-].O=[N+]([O-])[O-].[Al+3] [aluminum trinitrate] + O
Settings	mass density [kg/m3]
m1 = 0.5413	1081.6
m1 = 0.8667	1128.8
m1 = 1.007	1148.4
m1 = 1.507	1213.3
m1 = 2.012	1288.7
m1 = 2.793	1355.7

O=[N+]([O-])[O-].O=[N+]([O-])[O-].O=[N+]([O-])[O-].[Fe+3] [ferric nitrate] + O
Settings	mass density [kg/m3]
m1 = 0.1102	1017.4
m1 = 0.4672	1079.1
m1 = 1.183	1194.2
m1 = 1.476	1235.5
m1 = 1.907	1293.8
m1 = 2.442	1363.6

O=[N+]([O-])[O-].O=[N+]([O-])[O-].[Mn+2] [manganese nitrate] + O
Settings	mass density [kg/m3]
m1 = 0.0287	1000.9
m1 = 0.1948	1023
m1 = 0.5661	1069.9
m1 = 1.373	1162.1
m1 = 2.006	1224
m1 = 3.484	1359
